Measurements: US10626077B2, “Salvianolic acid compound T, preparation method therefor, and use thereof” (TASLY PHARMACEUTICAL GROUP CO., LTD., priority 2013, dated 2020)

Assays:
[1] = system: rats with myocardial infarction induced by coronary artery ligation; experiment: J point of ECG in rats with myocardial infarction induced by coronary artery ligation; assay type: in vivo, SD rats
Description: […] Aspirin: 30 mg/kg body-weight. Clean male SD rats were taken and placed in groups randomly according to the body-weight, including pseudo operation group (distilled water), model group (distilled water), aspirin group, (S)-salvianolic acid T low-dose group, (S)-salvianolic acid T high-dose group, and there were 10 rats in each group. Each group of rats were administrated by gastric administration once a day, continuously for 10 days. […] Recording standard II lead ECG at 5 minutes before surgery, 0 s, 1 min, 5 min, 15 min, 1 h, 4 h after the ligation, to investigate the changes of J point of ECG.

[2] = system: rats with myocardial infarction induced by coronary artery ligation; experiment: Myocardial infarction rate (TTC staining) after coronary artery ligation; assay type: in vivo, SD rats; conditions: for myocardial infarction rate: compared with the model group, P<0.05
Description: Clean male SD rats were taken and placed in groups randomly according to the body-weight, including pseudo operation group (distilled water), model group (distilled water), aspirin group, (S)-salvianolic acid T low-dose group, (S)-salvianolic acid T high-dose group, and there were 10 rats in each group. Each group of rats were administrated by gastric administration once a day, continuously for 10 days. […] Recording standard II lead ECG at 5 minutes before surgery, 0 s, 1 min, 5 min, 15 min, 1 h, 4 h after the ligation, to investigate the changes of J point of ECG. Taking out the heart immediately after the end of the experiment, washing away the blood with normal saline, cutting off the atrium and the bottom of the blood vessels, weighing the mass of the ventricle, cutting the ventricle into 5 pieces on average along the atrioventricular groove and putting them into 1% (w/v) TTC solution, dyeing in the water bath at a constant temperature of 37 °C for 5 min, taking digital photos firstly after taking them out, then separating the unstained parts (that is, the infarct parts) and weighing to calculate the percentage of them in the mass of total ventricular (myocardial infarction percentage), and performing t test with ischemia model group. The formula for calculating the infarct percentage is as follows: Infarct percentage (%)=(the mass of pale areas/the mass of the ventricle)×100%

[3] = system: rats with myocardial infarction induced by coronary artery ligation; experiment: Blood biochemical index of rats with myocardial infarction induced by coronary artery ligation; assay type: in vivo, SD rats; conditions: for CK / CK-MB / LD / MDA / SOD: serum
[4] = DPPH free-radical scavenging reaction
Description: Absorbance of the reaction solution was measured at 517 nm. In this study, vitamin C was regarded as a positive control. Free-radical scavenging rate was calculated in accordance with the following equation: Free-radical scavenging rate (%)=[1−Asample/Acontrol)/Acontrol]×100% Wherein, the Asample means the absorbance of the tested samples, and Acontrol means the absorbance of blank control.

[5] = Determination of reducing capacity (potassium ferricyanide / ferric chloride, absorbance at 700 nm)
Description: 0.5 ml of 200 mM phosphate buffer (pH6.8) containing different concentrations of the (S)/(R)-salvianolic acid T and 0.5 ml of 1.0% (w/v) potassium ferricyanide solution were sucked respectively and cooled on an ice bath after being heated on a water bath (50[…]) for 20 min. 0.5 ml of 10% trichloroacetic acid solution was added and centrifuged at […] for 10 min. 1.0 ml of the resulting supernatant was taken, into which 1.0 ml of distilled water and 0.2 ml of 0.1% (w/v) ferric chloride solution were added, stood still for 10 min and the absorbance was measured at 700 nm. Meanwhile, the blank experiment was carried out. Vitamin C is a strongly reducing substance, acting as positive control in this study. Reducing capacity of the sample is represented by subtracting the absorbance of the blank control from the absorbance of the tested sample. Thus, it means the higher absorbance, the stronger reducing capacity.

[6] = system: mice pulmonary fibrosis induced by bleomycin; experiment: Anti-pulmonary fibrosis experiment in mice induced by bleomycin; assay type: in vivo, Kunming mice; conditions: 3 weeks
Description: Dividing the 40 mice into 4 groups: □ normal control group, given nasal dripping of normal saline, drenched with normal saline; □ model control group:given nasal dripping of bleomycin, drenched with normal saline; □(S)-salvianolic acid T group (16 mg/kg): given nasal dripping of bleomycin, drenched with (S)-salvianolic acid T solution; □(R)-salvianolic acid T group (16 mg/kg): given nasal dripping of bleomycin, drenched with (R)-salvianolic acid T solution; 10 mice in each group.
On the first day of the experiment, the mice were anesthetized with chloral hydrate, each mouse was given disposable nasal dripping of 50 μg bleomycin to establish the pulmonary fibrosis model. On the second day of the experiment, two treatment groups were drenched with (S)/(R)-salvianolic acid T, the model group and the normal group were drenched with equal volume of normal saline, once each day, 3 consecutive weeks. On the 21th day of the experiment, serum was separated from the blood collected from the orbital vein to detect TGF-β1, the mice were killed to take lungs, ground with double distilled water (the ratio of lungs and double distilled water was 1:5 (w/v)) into tissue homogenate, centrifuged to detect the MDA, superoxide dismutase (SOD), catalase (CAT), peroxidase (POD) in the tissues.

[7] = system: L929 cells induced by TGF-β1; experiment: Inhibition of L929 cell proliferation induced by TGF-β1 (MTT); assay type: cell-based; conditions: Mus musculus, L929, 72 h, 2 μg/L TGF-β1, 72 h, MTT method
Description: L929 cells with a cell population of 5×10^7/L adjusted by DMEM culture solution containing 10% fetal bovine serum were seeded into 96 well plate, cultured for 24 h. Supplementing the same culture medium containing 2 μg/L TGF-β1 and (S)/(R)-salvianolic acid T of different concentrations. There were 6 multiple pores in each group, final concentration of (S)/(R)-salvianolic acid T was set as 0, 1, 3, 10, 20, 40, 80, 150 μmol/L. Removing medium after being cultured for 72 h, assaying the cell activity by MTT method.

[8] = sample 0.625 μg/ml, 100 μM DPPH, 20 min, 25° C.
[9] = high-dose group, dosage 10 mg/kg
[10] = compared with positive control vitamin C
[11] = 16 mg/kg, lung tissue homogenate

CC(=O)Oc1ccccc1C(=O)O [Aspirin, reference compound]
J point ([1]; aspirin group, dosage 30 mg/kg, gastric once a day for 10 days, before operation): −0.012 ± 0.005 mv
J point ([1]; aspirin group, dosage 30 mg/kg, 1 min after operation): 0.172 ± 0.057 mv
J point ([1]; aspirin group, dosage 30 mg/kg, 5 min after operation): 0.184 ± 0.024 mv
J point ([1]; aspirin group, dosage 30 mg/kg, 15 min after operation): 0.166 ± 0.025 mv
J point ([1]; aspirin group, dosage 30 mg/kg, 1 h after operation): 0.169 ± 0.036 mv
J point ([1]; aspirin group, dosage 30 mg/kg, 4 h after operation): 0.172 ± 0.021 mv
myocardial infarction rate ([2]; aspirin group (30 mg/kg)): significantly reduce the myocardial infarction rate
Na^+—K^+-ATPase ([3]; aspirin group, dosage 30 mg/kg): 0.005 ± 0.001 μmolPi/10^7 RBC/h
CK ([3]; aspirin group, dosage 30 mg/kg): 1.01 ± 0.16 U/ml
CK-MB ([3]; aspirin group, dosage 30 mg/kg): 841.9 ± 20.3 U/L
LD ([3]; aspirin group, dosage 30 mg/kg): 1.75 ± 0.17 mmol/L
MDA ([3]; aspirin group, dosage 30 mg/kg): 6.84 ± 0.97 nmol/mL
SOD ([3]; aspirin group, dosage 30 mg/kg): 221.1 ± 24.7 U/ml

O=C1O[C@H]([C@@H](O)CO)C(O)=C1O [Vitamin C, reference compound]
Free-radical scavenging rate [4, 8]: 8.02 ± 0.47%
Free-radical scavenging rate ([4]; sample 1.25 μg/ml): 15.56 ± 1.81%
Free-radical scavenging rate ([4]; sample 2.5 μg/ml): 21.32 ± 1.89%
Free-radical scavenging rate ([4]; sample 5 μg/ml): 56.29 ± 5.93%
Free-radical scavenging rate ([4]; sample 10 μg/ml): 79.51 ± 7.26%

O=C(/C=C/c1ccc(O)c(O)c1/C(=C\c1ccc(O)c(O)c1)C(=O)O)O[C@@H](Cc1ccc(O)c(O)c1)C(=O)O [(S)-salvianolic acid T]
J point ([1]; high-dose group, dosage 10 mg/kg, gastric once a day for 10 days, before operation): −0.014 ± 0.005 mv
J point ([1]; high-dose group, dosage 10 mg/kg, 1 min after operation): 0.169 ± 0.033 mv
J point ([1]; high-dose group, dosage 10 mg/kg, 5 min after operation): 0.146 ± 0.031 mv
J point ([1]; high-dose group, dosage 10 mg/kg, 15 min after operation): 0.160 ± 0.027 mv
J point ([1]; high-dose group, dosage 10 mg/kg, 1 h after operation): 0.170 ± 0.014 mv
J point ([1]; high-dose group, dosage 10 mg/kg, 4 h after operation): 0.153 ± 0.028 mv
J point ([1]; low-dose group, dosage 5 mg/kg, gastric once a day for 10 days, before operation): −0.011 ± 0.003 mv
J point ([1]; low-dose group, dosage 5 mg/kg, 1 min after operation): 0.176 ± 0.050 mv
J point ([1]; low-dose group, dosage 5 mg/kg, 5 min after operation): 0.204 ± 0.010 mv
J point ([1]; low-dose group, dosage 5 mg/kg, 15 min after operation): 0.185 ± 0.096 mv
J point ([1]; low-dose group, dosage 5 mg/kg, 1 h after operation): 0.206 ± 0.036 mv
J point ([1]; low-dose group, dosage 5 mg/kg, 4 h after operation): 0.194 ± 0.042 mv
effect on preventing acute myocardial infarction induced by coronary artery ligation ([2]; high-dose group compared with aspirin group, FIG. 11 heart biopsy): equal effect
myocardial infarction rate ([2]; high-dose group): significantly reduce the myocardial infarction rate
Na^+—K^+-ATPase [3, 9]: 0.005 ± 0.006 μmolPi/10^7 RBC/h
Na^+—K^+-ATPase ([3]; low-dose group, dosage 5 mg/kg): 0.004 ± 0.001 μmolPi/10^7 RBC/h
CK [3, 9]: 0.88 ± 0.22 U/ml
CK-MB [3, 9]: 846.7 ± 144.2 U/L
LD [3, 9]: 1.65 ± 0.24 mmol/L
MDA [3, 9]: 6.72 ± 1.54 nmol/mL
SOD [3, 9]: 241.7 ± 19.8 U/ml
CK ([3]; low-dose group, dosage 5 mg/kg): 1.18 ± 0.29 U/ml
CK-MB ([3]; low-dose group, dosage 5 mg/kg): 970.9 ± 225.1 U/L
LD ([3]; low-dose group, dosage 5 mg/kg): 1.67 ± 0.23 mmol/L
MDA ([3]; low-dose group, dosage 5 mg/kg): 7.46 ± 1.07 nmol/mL
SOD ([3]; low-dose group, dosage 5 mg/kg): 220.3 ± 32.6 U/ml
free-radical scavenging compared with vitamin C [4, 10]: much higher free-radical scavenging than that of the vitamin C
Free-radical scavenging rate [4, 8]: 10.32 ± 0.81%
Free-radical scavenging rate ([4]; sample 1.25 μg/ml): 28.77 ± 2.26%
Free-radical scavenging rate ([4]; sample 2.5 μg/ml): 44.22 ± 1.95%
Free-radical scavenging rate ([4]; sample 5 μg/ml): 86.01 ± 8.92%
Free-radical scavenging rate ([4]; sample 10 μg/ml): 98.97 ± 5.41%
reducing capacity compared with vitamin C [5, 10]: much stronger than that of vitamin C
reducing capacity (absorbance at 700 nm minus blank control) ([5]; sample 3.125 μg/ml): 0.157 ± 0.027
reducing capacity (absorbance at 700 nm minus blank control) ([5]; sample 6.25 μg/ml): 0.215 ± 0.011
reducing capacity (absorbance at 700 nm minus blank control) ([5]; sample 12.5 μg/ml): 0.039 ± 0.012
reducing capacity (absorbance at 700 nm minus blank control) ([5]; sample 25 μg/ml): 0.771 ± 0.023
reducing capacity (absorbance at 700 nm minus blank control) ([5]; sample 50 μg/ml): 1.573 ± 0.036
Serum TGF-β1 ([6]; 16 mg/kg drenched once each day, day 21): 263 ± 35 ng/L
CAT [6, 11]: 24.9 ± 2.3 U/g
MDA [6, 11]: 324 ± 33 µg/g
POD [6, 11]: 15.3 ± 2.1 U/g
SOD [6, 11]: 57.3 ± 4.9 U/g
Tissue TGF-β1 [6, 11]: 541 ± 51 pg/g
IC50 [7]: 26.1 µM
